Measured values published in patent US12497431B2, “Modified peptide fragments of Cav-1 protein and the use thereof in the treatment of fibrosis” (Rein Therapeutics, Inc., priority 2018, dated 2025).
Non-standard residues stand in square brackets, D forms with d. Residues, ends and D or L forms follow the SMILES beside them. No end group written: not given here. Orn = NCCC[C@H](N)C(=O)O

Key:
[1] = Cav-1 peptide solubility in Tris Buffered Saline, pH 7.51 (absorbance at 600 nm); format: physicochemical; settings: for UV (Abs) at dissolution / UV (Abs) after rest: absorbance at 600 nm, 50 mg in 5 mL TBS pH 7.51; for UV (Abs) at dissolution: immediately after dissolution for insoluble peptides, after 10 minutes for soluble peptides; for UV (Abs) after rest: again after 10 minutes (APi2348 15 min, APi2352 5 min, APi2353 15 min, APi2345 only after 20 min)
Method: In order to determine which peptides may be most soluble in a liquid formulation, 50 mg of each Cav-1 peptide was dissolved in 5 mL of Tris Buffered Saline, pH 7.51. Each sample was vortexed to help the sample dissolve completely. The absorbance at 600 nm was measured immediately after dissolution of the peptides for insoluble peptides, or after 10 minutes for soluble peptides. Absorbance was measured again after 10 minutes for insoluble peptides except for samples APi2348, APi2352, APi2353 which were measured a second time at 15 minutes, 5 minutes, or 15 minutes after dissolution, respectively.

[2] = test system: Idiopathic Pulmonary Fibrosis (IPF) cell line 2051; test: Western blot of SMA and tubulin in IPF cells treated with Cav-1 peptides; format: cell-based; settings: 2 days treatment, 10 uM peptide (LTI-03 10 and 90 uM), ImageJ ratio (FIG. 2)
Method: Cav-1 peptides were dissolved in DMSO to make 10 mM stock solutions. 10 mM stock solutions of each peptide were then diluted in HBSS to make 900 μM working stock solutions. The DMSO resuspended polypeptides as well as the working stocks were stored at −20 deg C. For culture media, working stocks were added to DMEM culture media to a final concentration of 10 μM of the Cav-1 peptide.
Idiopathic Pulmonary Fibrosis (IPF) cell line 2051 was purchased and IPF cells from the fourth passage were seeded in 100 mm plates containing DMEM, 10% FBS, and 1% P/S. IPF cells were washed with 4 mL DMEM+1% P/S and serum starved overnight. Cells were then treated for 2 days with either 44 uL HBSS (negative control), 10 uM LTI-03 (SEQ ID NO: 2), 90 uM LTI-03 (positive control), 10 uM APi2350, 10 uM APi2354, 10 uM APi2355, 10 uM APi2356 or with 20 uL of DMSO (negative control).
After 2 days of treatment, cells were washed once in cold, sterile HBSS. HBSS was removed, and 150 uL of lysis buffer with protease inhibitor cocktail was added to the cells. Cells were incubated with lysis buffer for 10 minutes. Cell lysates were scraped from the plates and collected. Cell lysates were then sonicated twice. Following sonication, the lysates were centrifuged at 13,000 RPM for 20 minutes. Lysates were then flash frozen in liquid nitrogen, thawed, vortexed, and centrifuged again at 13,000 RPM for 30 minutes. The supernatant was then collected and the pellet was discarded. The concentration of cell lysates was then determined by BCA assay.
Western blots were performed to evaluate the presence the effects of treatments. Briefly, 12 ug of each lysate was run on a 10% polyacrylamide gel. The gel was then transferred to a membrane and washed. Primary antibodies against smooth muscle actin (SMA) and Tubulin Results of the western blot can be seen in FIG. 1. The treatment for each of the lysates in the pictured lanes are: 1: Untreated, 2: 10 μM LTI-03, 3: 90 μM LTI-03, 4: 10 μM APi2350, 5: 10 μM APi2354, 6: 10 μM APi 2355, 7: 10 μM APi2356, and 8: DMSO.
Western blots were photographed and analyzed with ImageJ to determine a ratio of smooth muscle actin to tubulin (FIG. 2).

[3] = test system: AEC2 cells of non-specific interstitial pneumonia (NSIP) precision cut lung slices; test: Lysotracker staining of AEC2 cells in NSIP precision cut lung slices; format: cell-based; settings: NSIP PCLS, 48 h after a single treatment with 10, 100, or 500 μM
Text: (§1) To assess the effect of Cav-1 peptide APi2355 (SEQ ID NO: 8) on AEC2 cell viability, surgical biopsies were obtained for the preparation of non-specific interstitial pneumonia precision cut lung slices (PCLS). One individual with non-specific interstitial pneumonia (NSIP) and another with end-stage IPF were processed. Lysotracker staining, which stains acidic compartments in live cells and selectively accumulates in the lamellar bodies of lung AEC2 cells (Van der Velden et al., 2013), was performed. Cav-1 peptide was suspended in DMEM/5% FBS, and PCLS slices (n=5 replicates/treatment group) were treated with 10, 100, or 500 μM LTI-03 or APi2355 (Var 55). Lysotracker staining (Green DND-26, Promega) was performed on NSIP PCLS 48 h after a single treatment. […] In addition, lysotracker staining (Red DND-99, Promega) was performed on end-stage IPF on days 1, 2, 3, 5, and 7 following daily treatment with LTI-03 or APi2355.

[4] = test system: AEC2 cells of end-stage IPF precision cut lung slices; test: Lysotracker staining of AEC2 cells in end-stage IPF precision cut lung slices; format: cell-based; settings: end-stage IPF PCLS, daily treatment, staining on days 1, 2, 3, 5, and 7; 10, 100, or 500 μM
Text: as §1

[5] = TBS pH 7.51, compared to other tested peptides

| UV (Abs) at dissolution [1] | UV (Abs) after rest [1] | Molecule | further results |
| --- | --- | --- | --- |
| 0.846 |  | CC(C)[C@H](NC(=O)[C@@H](NC(=O)[C@H](Cc1ccccc1)NC(=O)[C@@H](NC(=O)[C@@H](NC(=O)[C@H](Cc1ccccc1)NC(=O)[C@H](CO)NC(=O)[C@H](C)NC(=O)[C@@H](N)CCCN)[C@@H](C)O)[C@@H](C)O)[C@@H](C)O)C(=O)N[C@H](C(=O)N[C@@H](CCCCN)C(N)=O)[C@@H](C)O [APi2348, OASFTTFTVTK-NH2] (H-[Orn]ASFTTFTVTK-NH2) |  |
| 0.008 | 0.007 | CC(C)[C@H](NC(=O)[C@@H](NC(=O)[C@H](Cc1ccccc1)NC(=O)[C@@H](NC(=O)[C@@H](NC(=O)[C@H](Cc1ccccc1)NC(=O)[C@H](CO)NC(=O)[C@H](C)NC(=O)[C@H](CCCCN)NC(=O)CNC(=O)[C@H](CCC(=O)O)NC(=O)[C@@H](C)NC(=O)[C@@H](C)N)[C@@H](C)O)[C@@H](C)O)[C@@H](C)O)C(=O)N[C@H](C(=O)N[C@@H](CCCCN)C(=O)NCC(=O)N[C@@H](CO)C(=O)N[C@H](C)C(=O)N[C@H](C)C(N)=O)[C@@H](C)O [APi2354, aaEGKASFTTFTVTKGSaa-NH2] (H-[dA][dA]EGKASFTTFTVTKGS[dA][dA]-NH2) | solubility at pH 7.51 (in words) [1, 5]: increased solubility; expression of SMA relative to tubulin [2]: increased the expression of SMA relative to tubulin |
| 0.000 | 0.000 | CC(=O)N[C@H](C)C(=O)N[C@H](C)C(=O)N[C@@H](CCC(=O)O)C(=O)NCC(=O)N[C@@H](CCCCN)C(=O)N[C@@H](C)C(=O)N[C@@H](CO)C(=O)N[C@@H](Cc1ccccc1)C(=O)N[C@H](C(=O)N[C@H](C(=O)N[C@@H](Cc1ccccc1)C(=O)N[C@H](C(=O)N[C@H](C(=O)N[C@H](C(=O)N[C@@H](CCCCN)C(=O)NCC(=O)N[C@@H](CO)C(=O)N[C@H](C)C(=O)N[C@H](C)C(N)=O)[C@@H](C)O)C(C)C)[C@@H](C)O)[C@@H](C)O)[C@@H](C)O [APi2355, Ac-aaEGKASFTTFTVTKGSaa-NH2] (Ac-[dA][dA]EGKASFTTFTVTKGS[dA][dA]-NH2) | solubility at pH 7.51 (in words) [1, 5]: increased solubility; expression of SMA relative to tubulin [2]: increased the expression of SMA relative to tubulin; AEC2 cell viability (lysotracker staining) [3]: strong dose-dependent increase; AEC2 cell viability (lysotracker staining) [4]: observed out to day 3 |
| 3.000 | 3.000 | Ac-DSGKASFTTFTVTK-NH2 [APi2353, Ac-DSGKASFTTFTVTK-NH2] |  |
| 2.347 | 2.284 | Ac-KASFTTFTVTK-NH2 [APi2347, Ac-KASFTTFTVTK-NH2] |  |
| 2.523 | 2.377 | Ac-KASFTTFTVTKGS-NH2 [APi2351, Ac-KASFTTFTVTKGS-NH2] |  |
| 1.870 | 1.827 | Ac-OASFTTFTVTK-NH2 [APi2349] |  |
| 2.293 |  | Ac-OASFTTFTVTOS-NH2 [APi2357] |  |
| 2.468 | 2.398 | H-DSGKASFTTFTVTK-NH2 [APi2352, DSGKASFTTFTVTK-NH2] |  |
| 2.409 | 1.437 | H-FTTFTVT-NH2 [APi2344, FTTFTVT-NH2] |  |
|  | 1.058 | H-FTTFTVTK-NH2 [APi2345, FTTFTVTK-NH2] | solubility at pH 7.51 (in words) [1, 5]: dissolution was incomplete |
| 1.648 | 1.622 | H-KASFTTFTVTK-NH2 [APi2346, KASFTTFTVTK-NH2] |  |
|  |  | KASFTTFTVTKGS-NH2 [APi2350] | solubility at pH 7.51 (in words) ([1]; pH 7.51): increased solubility; expression of SMA relative to tubulin [2]: increased the expression of SMA relative to tubulin |

| Molecule | UV (Abs) at dissolution [1] | UV (Abs) after rest [1] | further results |
| --- | --- | --- | --- |
| OASFTTFTVTOS-NH2 ([Orn]ASFTTFTVT[Orn]S-NH2; N-terminus assumed; SMILES CC(C)[C@H](NC(=O)[C@@H](NC(=O)[C@H](Cc1ccccc1)NC(=O)[C@@H](NC(=O)[C@@H](NC(=O)[C@H](Cc1ccccc1)NC(=O)[C@H](CO)NC(=O)[C@H](C)NC(=O)[C@@H](N)CCCN)[C@@H](C)O)[C@@H](C)O)[C@@H](C)O)C(=O)N[C@H](C(=O)N[C@@H](CCCN)C(=O)N[C@@H](CO)C(N)=O)[C@@H](C)O) [APi2356, O = Ornithine] | 0.001 |  | solubility at pH 7.51 (in words) ([1]; pH 7.51): increased solubility; expression of SMA relative to tubulin [2]: increased the expression of SMA relative to tubulin |
